Earlier results as cited in patent US10266741B2, “Apparatus and method for addition of ADH enzyme inhibitors to existing engine cooling systems” (priority 2016, dated 2019).

Test system: humans
Conditions: ingestion, Federal Register Vol. 63, No. 27, Feb. 10, 1998

SMILES: OCCO [EG, ethylene glycol]
- known toxin to humans at relatively low levels (reported as low as): 1,570 mg/kg
